Assay [1] deals with SHP-2 enzyme (Met1-Leu525) (Homo sapiens (Human), UniProt Q06124). The assay is described as follows: SHP2 inhibition enzymatic assay. The assay is classed as biochemical. As to conditions: 75 μM DiFMUP substrate. The procedure, abridged:
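SHP-2 (Met1-Leu525), 0.5 nM, activated with 500 nM IRS1 bis-phosphopeptide, preincubated 30 min with compounds in HEPES pH 7.2 buffer with 5 mM DTT. 75 μM DiFMUP added for 30 min at room temperature, stopped with bpV; fluorescence read. IC50 from four-parameter logistic fit of % inhibition.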

Assay [2] deals with ERK phosphorylation in KYSE-520 cells. Kind of assay: Phospho-ERK cellular assay. The assay is classed as cell-based. The following applies: read-out: PERK IC50. The procedure, abridged:
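TR-FRET read-out of ERK1/2 Thr202/Tyr204 phosphorylation was taken after overnight antibody incubation at room temperature. Before that, KYSE-520 cells were treated 2 h at 37 °C with compound dilutions and lysed 30 min. Percent inhibition relative to vehicle and cell-free wells was fitted four-parametrically to give IC50.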

Setting [3] is: 0.5 nM SHP-2 activated by 500 nM IRS1 peptide, read-out: SHP2wt-IC50.
Setting [4] is: Homo sapiens, KYSE-520, 2 h, KYSE-520 cells, 2 h at 37° C., phospho-ERK1/2 (Thr202/Tyr204) TR-FRET.
[5] abbreviates: SHP2wt-IC50, 0.5 nM SHP-2 activated by 500 nM IRS1 peptide.
The mark [6] stands for this setting: KYSE-520 cells, 2 h at 37° C., phospho-ERK1/2 (Thr202/Tyr204) TR-FRET.

Read-outs that look alike come from different tables or passages of the source.

Chain of SHP-2 enzyme (Met1-Leu525) (Q06124 1-525): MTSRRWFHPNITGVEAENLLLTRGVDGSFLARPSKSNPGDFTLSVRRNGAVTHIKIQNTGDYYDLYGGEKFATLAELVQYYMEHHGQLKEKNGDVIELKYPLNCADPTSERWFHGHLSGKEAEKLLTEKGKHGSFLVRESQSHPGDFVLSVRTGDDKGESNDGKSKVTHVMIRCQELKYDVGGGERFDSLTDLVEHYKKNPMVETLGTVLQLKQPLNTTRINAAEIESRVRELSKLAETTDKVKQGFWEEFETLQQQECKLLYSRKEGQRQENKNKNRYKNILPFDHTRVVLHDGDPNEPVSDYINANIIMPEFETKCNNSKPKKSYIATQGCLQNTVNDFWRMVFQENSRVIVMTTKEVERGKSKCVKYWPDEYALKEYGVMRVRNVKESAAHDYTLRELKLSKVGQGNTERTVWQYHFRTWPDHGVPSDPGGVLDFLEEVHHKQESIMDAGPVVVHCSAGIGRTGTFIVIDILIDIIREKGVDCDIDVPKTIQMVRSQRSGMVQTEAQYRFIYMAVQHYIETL

The IC50 is the concentration that gives 50% inhibition. Consider `Cc1csc([C@@]2(CN)[C@@H]3CCN(c4cnc5c(-c6ccc7nn(C)c(Cl)c7c6Cl)n[nH]c5n4)C[C@@H]32)n1` [Example 445, ((1S,6R,7S)-3-(3-(3,4-dichloro-2-methyl-2H-indazol-5-yl)-1H-pyrazolo[3,4-b]pyrazin-6-yl)-7-(4-methylthiazol-2-yl)-3-azabicyclo[4.1.0]heptan-7-yl)methanamine], for which the 50% inhibitory concentration (IC50) in assay [1] (setting [3]) is less than 500 nM; in assay [2] (setting [4]) it was less than 1000 nM.

With `NCC1(c2nc(Cl)cs2)C2CCN(c3cnc4c(-c5ccc(F)c6ncccc56)n[nH]c4n3)CC21` (stereo not drawn) [Example 446, (7-(4-chlorothiazol-2-yl)-3-(3-(8-fluoroquinolin-5-yl)-1H-pyrazolo[3,4-b]pyrazin-6-yl)-3-azabicyclo[4.1.0]heptan-7-yl)methanamine], the values for the IC50 in assay [1] (setting [3]) and in assay [2] (setting [4]) were less than 500 nM and less than 1000 nM, respectively.

Consider `Cc1csc([C@@]2(CN)[C@@H]3CN(c4cnc(Sc5ccn6cc(C(=O)N(C)C)nc6c5Cl)cn4)C[C@@H]32)n1` [Example 447, 7-((5-((1R,5S,6r)-6-(aminomethyl)-6-(4-methylthiazol-2-yl)-3-azabicyclo[3.1.0]hexan-3-yl)pyrazin-2-yl)thio)-8-chloro-N,N-dimethylimidazo[1,2-a]pyridine-2-carboxamide], for which the IC50 was less than 500 nM in assay [1] (setting [3]) and less than 1000 nM in assay [2] (setting [4]).

As for `Cc1csc([C@@]2(CN)[C@@H]3CCN(c4cnc5c(-c6ccc(OS(=O)(=O)F)c7ncccc67)n[nH]c5n4)C[C@@H]32)n1` [Example 448, 5-(6-((1S,6R,7S)-7-(aminomethyl)-7-(4-methylthiazol-2-yl)-3-azabicyclo[4.1.0]heptan-3-yl)-1H-pyrazolo[3,4-b]pyrazin-3-yl)quinolin-8-yl sulfurofluoridate], the 50% inhibitory concentration (IC50) was less than 500 nM in assay [1] (setting [5]) and less than 1000 nM in assay [2] (Homo sapiens, KYSE-520, 2 h).

Turning to `NC[C@]1(c2ccccc2F)[C@@H]2CCN(c3cnc4c(-c5ccc(OS(=O)(=O)F)c6ncccc56)n[nH]c4n3)C[C@@H]21` [Example 449, 5-(6-((1S,6R,7R)-7-(aminomethyl)-7-(2-fluorophenyl)-3-azabicyclo[4.1.0]heptan-3-yl)-1H-pyrazolo[3,4-b]pyrazin-3-yl)quinolin-8-yl sulfurofluoridate], the IC50 in assay [1] (setting [5]) is less than 500 nM; in assay [2] (Homo sapiens, KYSE-520, 2 h), less than 1000 nM.

As for `Cc1csc(C2(CN)C3CCN(c4cnc5c(-c6ccc(OS(=O)(=O)F)c(Cl)c6Cl)n[nH]c5n4)CC32)n1` (stereo not drawn) [Example 450, 4-(6-(7-(aminomethyl)-7-(4-methylthiazol-2-yl)-3-azabicyclo[4.1.0]heptan-3-yl)-1H-pyrazolo[3,4-b]pyrazin-3-yl)-2,3-dichlorophenyl sulfurofluoridate], the IC50 in assay [1] (setting [5]) was less than 500 nM; in assay [2] (Homo sapiens, KYSE-520, 2 h), less than 1000 nM.

As for `NC[C@]1(c2ccccc2F)[C@@H]2CCN(c3cnc4c(-c5ccnc(-n6cccn6)c5Cl)n[nH]c4n3)C[C@@H]21` [Example 451, ((1S,6R,7R)-3-(3-(3-chloro-2-(1H-pyrazol-1-yl)pyridin-4-yl)-1H-pyrazolo[3,4-b]pyrazin-6-yl)-7-(2-fluorophenyl)-3-azabicyclo[4.1.0]heptan-7-yl)methanamine], the IC50 in assay [1] (setting [3]) is less than 500 nM; in assay [2] (setting [4]), less than 1000 nM.

On to `NC[C@]1(c2ccccc2)[C@@H]2CN(c3cnc4c(-c5cccc(Cl)c5Cl)n[nH]c4n3)C[C@@H]21` [Example 452, ((1R,5S,6s)-3-(3-(2,3-dichlorophenyl)-1H-pyrazolo[3,4-b]pyrazin-6-yl)-6-phenyl-3-azabicyclo[3.1.0]hexan-6-yl)methanamine], for which the figures for the 50% inhibitory concentration (IC50) in assay [1] (setting [3]) and in assay [2] (setting [4]) were less than 500 nM and less than 1000 nM, respectively.

Turning to `Cn1cc2c(Cl)c(-c3n[nH]c4nc(N5C[C@@H]6[C@H](C5)[C@@]6(CN)c5ccccc5)cnc34)ccc2n1` [Example 453, ((1R,5S,6s)-3-(3-(4-chloro-2-methyl-2H-indazol-5-yl)-1H-pyrazolo[3,4-b]pyrazin-6-yl)-6-phenyl-3-azabicyclo[3.1.0]hexan-6-yl)methanamine], the IC50 in assay [1] (setting [3]) is less than 500 nM; in assay [2] (setting [4]), less than 1000 nM.

As to `NC[C@]1(c2ccccc2F)[C@@H]2CCN(c3cnc4c(-c5ccc(-n6cccc6)cc5Cl)n[nH]c4n3)C[C@@H]21` [Example 454, ((1S,6R,7R)-3-(3-(2-chloro-4-(1H-pyrrol-1-yl)phenyl)-1H-pyrazolo[3,4-b]pyrazin-6-yl)-7-(2-fluorophenyl)-3-azabicyclo[4.1.0]heptan-7-yl)methanamine], the 50% inhibitory concentration (IC50) in assay [1] (setting [3]) is less than 500 nM; in assay [2] (setting [4]), less than 1000 nM.

On to `NC[C@]1(c2ccccc2)[C@@H]2CN(c3cnc4c(-c5cc(F)c6ncccc6c5)n[nH]c4n3)C[C@@H]21` [Example 455, ((1R,5S,6s)-3-(3-(8-fluoroquinolin-6-yl)-1H-pyrazolo[3,4-b]pyrazin-6-yl)-6-phenyl-3-azabicyclo[3.1.0]hexan-6-yl)methanamine], for which the values for the concentration for half-maximal inhibition (IC50) in assay [1] (setting [3]) and in assay [2] (setting [4]) were less than 500 nM and less than 1000 nM, respectively.

Consider `NC[C@]1(c2ccccc2)[C@@H]2CN(c3cnc4c(-c5ccc6nccnc6c5Cl)n[nH]c4n3)C[C@@H]21` [Example 456, ((1R,5S,6s)-3-(3-(5-chloroquinoxalin-6-yl)-1H-pyrazolo[3,4-b]pyrazin-6-yl)-6-phenyl-3-azabicyclo[3.1.0]hexan-6-yl)methanamine], for which the values for the IC50 in assay [1] (setting [3]) and in assay [2] (setting [4]) were less than 500 nM and less than 1000 nM, respectively.

`Cc1csc([C@@]2(CN)[C@@H]3CN(c4cnc5c(-c6ccc7nn(C)cc7c6Cl)n[nH]c5n4)C[C@@H]32)n1` [Example 457, ((1R,5S,6r)-3-(3-(4-chloro-2-methyl-2H-indazol-5-yl)-1H-pyrazolo[3,4-b]pyrazin-6-yl)-6-(4-methylthiazol-2-yl)-3-azabicyclo[3.1.0]hexan-6-yl)methanamine]: the IC50 was less than 500 nM in assay [1] (setting [3]) and less than 1000 nM in assay [2] (setting [4]).

On to `Cc1csc([C@@]2(CN)[C@@H]3CN(c4cnc5c(-c6ccn7nccc7c6Cl)n[nH]c5n4)C[C@@H]32)n1` [Example 458], for which the results for the IC50 in assay [1] (setting [3]) and in assay [2] (setting [6]) were less than 500 nM and less than 1000 nM, respectively.

Turning to `Cc1csc([C@@]2(CN)[C@@H]3CN(c4cnc5c(-c6ccnc7c(F)cccc67)n[nH]c5n4)C[C@@H]32)n1` [Example 459], the IC50 in assay [1] (setting [3]) is less than 500 nM; in assay [2] (setting [6]), less than 1000 nM.

As to `Cc1csc([C@@]2(CN)[C@@H]3CN(c4cnc5c(-c6ccc7nccnc7c6Cl)n[nH]c5n4)C[C@@H]32)n1` [Example 460], the IC50 is less than 500 nM in assay [1] (setting [3]) and less than 1000 nM in assay [2] (setting [6]).

Consider `Cc1csc([C@@]2(CN)[C@@H]3CN(c4cnc5c(-c6ccc7nc(C)sc7c6Cl)n[nH]c5n4)C[C@@H]32)n1` [Example 461], for which the half-inhibitory concentration (IC50) is less than 500 nM in assay [1] (setting [3]) and less than 1000 nM in assay [2] (setting [6]).

`Cc1csc([C@@]2(CN)[C@@H]3CN(c4cnc5c(-c6ccc7nscc7c6Cl)n[nH]c5n4)C[C@@H]32)n1` [Example 463]: the IC50 in assay [1] (setting [3]) was less than 500 nM; in assay [2] (setting [6]), less than 1000 nM.

In the case of `Cc1csc([C@@]2(CN)[C@@H]3CN(c4cnc5c(-c6ccc7cn(C(F)F)nc7c6Cl)n[nH]c5n4)C[C@@H]32)n1` [Example 464], the half-maximal inhibitory concentration (IC50) was less than 500 nM in assay [1] (setting [3]) and less than 1000 nM in assay [2] (setting [6]).

Regarding `Cc1csc([C@@]2(CN)[C@@H]3CN(c4cnc5c(-c6ccc7nn(C(F)F)cc7c6Cl)n[nH]c5n4)C[C@@H]32)n1` [Example 466], the half-inhibitory concentration (IC50) in assay [1] (setting [3]) is less than 500 nM; in assay [2] (setting [6]) it was less than 1000 nM.

For the compound `Cc1csc([C@@]2(CN)[C@@H]3CN(c4cnc5c(-c6ccc7nsnc7c6Cl)n[nH]c5n4)C[C@@H]32)n1` [Example 467], the concentration for half-maximal inhibition (IC50) in assay [1] (setting [3]) is less than 500 nM; in assay [2] (setting [6]), less than 1000 nM.

For the compound `Cc1csc([C@@]2(CN)[C@@H]3CN(c4nc5[nH]nc(-c6ccc7nc(C)sc7c6Cl)c5c(=O)n4C)C[C@@H]32)n1` [Example 469, 6-((1R,5S,6r)-6-(aminomethyl)-6-(4-methylthiazol-2-yl)-3-azabicyclo[3.1.0]hexan-3-yl)-3-(7-chloro-2-methylbenzo[d]thiazol-6-yl)-5-methyl-1,5-dihydro-4H-pyrazolo[3,4-d]pyrimidin-4-one], the concentration for half-maximal inhibition (IC50) is less than 500 nM in assay [1] (setting [3]) and less than 1000 nM in assay [2] (setting [4]).

Take `Cn1cc2c(Cl)c(-c3n[nH]c4nc(N5C[C@@H]6[C@H](C5)[C@@]6(CN)c5nc(Cl)cs5)n(C)c(=O)c34)ccc2n1` [Example 470, 6-((1R,5S,6r)-6-(aminomethyl)-6-(4-chlorothiazol-2-yl)-3-azabicyclo[3.1.0]hexan-3-yl)-3-(4-chloro-2-methyl-2H-indazol-5-yl)-5-methyl-1,5-dihydro-4H-pyrazolo[3,4-d]pyrimidin-4-one]: the concentration for half-maximal inhibition (IC50) in assay [1] (setting [3]) is less than 500 nM; in assay [2] (setting [4]) it was less than 1000 nM.

In the case of `Cn1cc2c(Cl)c(-c3n[nH]c4nc(N5C[C@@H]6[C@H](C5)[C@@]6(CN)c5nc(C(F)(F)F)cs5)n(C)c(=O)c34)ccc2n1` [Example 471, 6-((1R,5S,6r)-6-(aminomethyl)-6-(4-(trifluoromethyl)thiazol-2-yl)-3-azabicyclo[3.1.0]hexan-3-yl)-3-(4-chloro-2-methyl-2H-indazol-5-yl)-5-methyl-1,5-dihydro-4H-pyrazolo[3,4-d]pyrimidin-4-one], the results for the IC50 in assay [1] (setting [3]) and in assay [2] (setting [4]) were less than 500 nM and less than 1000 nM, respectively.

Values taken from US20240109900A1, “AZABICYCLIC SHP2 INHIBITORS” (IRBM S.P.A., priority 2021, published 2024).
